Patent US20190070170A1, “METHOD OF S[…]-1” (Macau University of Science and Technology, priority 2017, published 2019)

What was measured:
[1] = test system: collagen-induced arthritis; experiment: Collagen-II induced arthritis (CIA) in DBA/1 mice; assay type: in vivo; conditions: CIA DBA/1 mice; SIN 100 mg/kg i.p.
Procedure: Female DBA/1 mice (8-9 weeks old) were purchased from Shanghai SiLaike (SLAC) Laboratory Animal Company (Shanghai, China) and fed with a chow diet and water at room temperature. Equal volume of complete Freuend's adjuvant (CFA) and Bovine Type II Collagen (CII) were mixed and emulsified using a homogenizer (13,000 rpm) on ice. On day 0, DBA/1 mice were immunized by injecting 50 μl of CII in CFA in the tail, approximately 2 cm from the base of the tail. After injection, on day 18, mice with one or more than one paw inflamed were chosen and randomly divided into model group, SIN (100 mg/kg, i.p.) treatment group and MTX (10 mg/kg/week, p.o) treatment group, the mice without immunization were used as normal control. On day 21, these chosen mice were boosted through injecting the same volume of CII in IFA same as the day 0 immunization procedure. The incidence of joint swelling in each group was recorded every two days since drug treatment. Paw thickness (at the ankle joints of the hind paws) of each mouse was obtained by using vernier caliper to record the severity of paw swelling.
Arthritis score of each paw was evaluated every two days during experiment with the following criteria: • 0: no evidence of erythema and swelling; • 1: erythema and mild swelling confirmed to the tarsals or ankle joint; • 2: erythema and mild swelling extending from the ankle to the tarsal joints; • 3: erythema and moderate swelling extending from the ankle to metatarsal joints; and • 4: erythema and severe swelling encompass the ankle, foot and digits, or ankylosis of the limb.
The score of each paw was summed for a score of 0-16 for each mouse. Mice were then sacrificed and hind paws were removed and freshly frozen in liquid nitrogen and stored at −80° C. until used.

TXA2 = TXA2 level in culture supernatants of LPS-activated rat peritoneal macrophages (ELISA); assay type: cell-based; conditions: LPS-stimulated rat peritoneal macrophages, culture supernatant
Procedure: (§1) Sprague-Dawley (SD) rats from the University of Hong Kong were housed in cages with free access to food and water. Peritoneal macrophages of SD rats were isolated as described in Liu J. et al., Pharmacological research 2016, 111:303-315. Briefly, untreated rats were sacrificed and after laparotomy, about 50 ml cold sterile Hank's balanced salt solution (HBSS) was used to lavage the peritoneal cavity at twice, and then the peritoneal lavage fluid was collected and centrifuged at 1500 rpm for 10 min. The cell pellets was suspended at a density 1.5×10^6 cells/ml in pre-hearted DMEM medium with 10% heat-inactivated FBS, penicillin G (100 units/ml), streptomycin ([…]), and L-glutamine (2 mM), followed by seeding in 6-well plates at a density of 4.5×10^6 cells and incubation for 2 h. Then the medium were discarded to remove the non-adherent cells. The adherent cells were further washed for two times with pre-heated DMEM medium to remove floating cells. Next, cells were pre-treated with various concentration of SIN for 1 h, followed by stimulation with LPS (1 μg/ml).
RAW264.7 cells and rat peritoneal macrophages were seeded in a 96-well plate at density of 1.4×10^4 and 1.5×10^5 cells, respectively. […] The optical density was measured at 570 nm against a reference wavelength of 650 nm using a microplate UV/VIS spectrophotometer (Tecan, Mannedorf, Switzerland). […]

[2] = test system: carrageenan-induced paw edema; experiment: Carrageenan-induced rat paw edema model; assay type: in vivo, SD rats; conditions: SIN 25, 50 and 100 mg/kg i.p. 2 h before carrageenan
Procedure: The model of carrageenan-induced paw edema was performed with SD rats (150-200 g). […] Briefly, rats were fasted for 12 h before experiment and intraperitoneal injection was performed with three different doses (25, 50 and 100 mg/kg) of SIN, or DEX (reference drug, 2 mg/kg) or 0.9% saline (Vehicle and Normal group rats), at 2 h prior to the induction of paw edema. Paw edema was induced by subcutaneous injection of 100 μl of 1% (w/v) freshly prepared λ-carrageenan (Sigma, St Louis, Mo., USA) diluted in saline in the right hind foot pad. 100 μl sterile saline was injected to the rats in the right hind paw as normal control. Paw volumes (ml) of right hind foot of each rat were measured using a plethysmometer (type 7150; UGO Basile, Comerio, Italy) at 0 h (before carrageenan injection) and then again at 1, 2, 3 and 4 h after the injection of carrageenan or saline. The percentage of paw edema of the right hind paws of all groups were calculated at different time points by the following equation: Swelling ratio in each time points=(the paw volume after injection−the paw volume before injection)/the paw volume before injection×100

cPLA2 = cPLA2 protein expression in LPS-activated rat peritoneal macrophages (western blotting); assay type: cell-based; conditions: SIN or DEX 1 h, LPS 24 h
Procedure: as §1
(§2) Whole-cell and nuclear proteins were obtained using RIPA lysis buffer (CST, Boston, Mass., USA) and Nuclear and Cytoplasmic Extraction Reagents kit from Thermo Scientific (Asheville, N.C., USA), respectively. […] The levels of protein expression were measured using Odyssey v3.0 software from Li-COR (Lincoln, Nebr., USA).

iNOS = iNOS protein level in LPS-stimulated rat peritoneal macrophages (immunoblotting); assay type: cell-based; conditions: pretreatment 1 h, LPS 1 μg/ml 24 h
Procedure: as §1, §2

SMILES: COC1=C[C@@H]2[C@@H]3Cc4ccc(OC)c(O)c4[C@]2(CCN3C)CC1=O [SIN, sinomenine]
- arthritic scores (total of four paws) [1]: decreased
- average thickness of the inflamed hind paws [1]: decreased average thickness
- onset of joint swelling (incidence of arthritis) [1]: delayed the onset of the joint swelling
- level of TXA2 (TXA2): no significant influence
- paw edema (percentage of increase in paw volume) ([2]; at 2, 3 and 4 h): successfully reduced paw edema in a dose dependent manner
- paw edema (percentage of increase in paw volume) ([2]; at 1 h): no effects
- cPLA2 expression (cPLA2): no influences
- iNOS expression (iNOS): significantly inhibited
